No end group written: not given here.
Legend:
APEC O78 = assay: Efficacy in wax moth larvae model; assay type: in vivo, Galleria mellonella
Description: Efficacy and toxicity of peptides in wax moth (Galleria mellonella) larvae model: To measure the efficacy and toxicity of peptides (P1, P2, and P3) in vivo, wax moth larvae model was used as described previously. Wax moth larvae were obtained from Vanderhorst Wholesale, Inc. (Saint Marys, OH) and were kept at 37° C. overnight before use. Healthy larvae (creamy color with no blackening) were selected and kept in sterile petri dishes before inoculation. For toxicity evaluation, larvae (n=10/group) were injected with 25.5 mM of peptides (dissolved in sterile water containing DMSO) through last left pro-leg using PB600-1 repeating dispenser (Hamilton) attached to insulin syringe (ReliOn; 31 gauze, 8 mm needle length). The injected larvae were incubated for 72 h at 37° C., and mortality was recorded every 12 h.
For efficacy evaluation, larvae (n=15/group) were pretreated (as above) and infected with rifampicin resistant (Rif) APEC O78 (2.3×10^4 CFU/larva) through last right pro-leg within 30 mins of treatment. The larvae were incubated at 37° C. for 72 h and mortality was recorded as above. […] The statistical significance (P<0.05) of treatments on survival of larvae and APEC load inside larvae was calculated using log-rank test and one-way ANOVA followed by Tukey's post-hoc test, respectively.

[1] = system: intracellular APEC O78 in HD11 cells; assay: Intracellular survival of APEC in HD11 cells (gentamicin protection assay); assay type: cell-based, chicken
Description: Effect of peptides on intracellular survival of APEC in HD11 cells: To determine the efficacy of peptides (P1, P2, and P3) against intracellular APEC, gentamicin protection assay was conducted in HD 11 (chicken macrophage) cells as described previously. The cells were cultured in Iscove's Modified Dulbecco's Media (IMDM) supplemented with 10% fetal bovine serum (FBS), 2 mM L-glutamine and 2% penicillin-streptomycin (P/S) solution and maintained at 37° C. incubator with 5% C02. Cells (approximately 10^4 cells/well) were seeded in a 96-well cell culture plate in 100 μL culture media and incubated for 36 h prior to using for the assay. Following incubation, the cells were replenished with 100 μL of fresh cell culture media with no FBS and antibiotic and incubated until infection (2 h). For the infection, the overnight grown APEC O78 was subcultured to mid-logarithmic phase, centrifuged, washed twice with PBS, adjusted to 1×10^7 CFU/mL. One-hundred microliters of the APEC suspension (MOI: 100) was added to each well of the 96-well plate and incubated for 1 h to allow the invasion. The cells were washed twice and treated with gentamicin (150 μg/mL) to kill the extracellular APEC. The cells were treated with peptides at 12 mM, 15 mM, and 18 mM concentrations. Infected but not treated, infected and DMSO-treated, and non-infected and not treated cells were used as controls. Three independent experiments were conducted.

APEC [2] = system: APEC
Description: FIGS. 58A-58B show the APEC load after treatment 8 days dpi with LGG and 50 mg/mL of peptides in drinking water.

S. typhimurium = assay: P1 and P2 in drinking water, S. typhimurium infected chickens; assay type: in vivo; details: 100 mg/L in drinking water, 7 dpi
Description: Both the P1 and P2 at 200 mg/L and 100 mg/L concentrations reduced S. typhimurium colonization by 0.78 (p<0.05) and 0.69 (p<0.05) log CFU/gm, respectively.

APEC O78 membrane = assay: Bacterial cytological profiling (confocal microscopy); assay type: cell-based, E. coli; details: 5×MIC, 3 h
Description: Bacterial cytological profiling (BCP): To identify the mode of action (MOA) of peptides (P1, P2, and P3), BCP approach was used as described previously. […] Following incubation, cultures were centrifuged, and bacteria was resuspended in 100 μL sterile water. FM4-64 (1 μg/mL; Invitrogen™ Molecular Probes™) and Syto-9 (5 μM; Invitrogen™ Molecular Probes™) stains were added to the bacterial cultures and incubated at 4° C. for 45 mins with shaking at 150 rpm. The stained bacteria were centrifuged, pelleted, and resuspended in 10 μL sterile water. The bacterial suspension (3 μL) was transferred onto glass slides containing thin layer of 1.2% agar and 20% LB media for confocal microscopy. Microscopy was performed using Leica TCS SP6 confocal scanning microscope (FM4-64-excitation 515 nm and emission 640 nm: Syto-9-excitation 485 nm and emission 498 nm) at Molecular and Cellular Imaging Center (MCIC), The Ohio State University (mcic.osu.edu/microscopy). Untreated bacterial culture was used as control.

ST membrane = assay: Transmission electron microscopy; assay type: cell-based, Salmonella enterica; details: 10×MIC, 3 h
Description: ST was treated with 10× peptide MIC and incubated for 3 h.
Transmission electron microscopy: To further visually analyze the inhibitory effects of P1 and P2 on ST, transmission electron microscopy (TEM) was performed as described previously. […] After which, cells were fixed overnight with 3% glutaraldehyde and 2% paraformaldehyde at room temperature. Cells were then washed and postfixed with 1% osmium tetroxide (OsO4). The washed cells were then dehydrated, with graded ethanol, and embedded with Embed 812 kit (Electron Microscopy Sciences, Pa). Ultrathin (70 nm) sections were prepared on formvar-carbon coated grids and stained with uranyl acetate and lead citrate. Untreated ST was used as a control. TEM was conducted at MCIC using the Hitachi H-7500 microscope.

APEC [3] = assay: Alanine scanning SAR, anti-APEC activity; assay type: cell-based, E. coli
Description: Structure-activity relationship (SAR) study: To identify the crucial amino acid residues required for the peptide activity, alanine scanning libraries of peptides (P1, P2, and P3) (www.genscript.com/alanine_scanning.html) were synthesized (Table 22) and tested for anti-APEC activity as described above. The anti-APEC activity of peptide analogues (SEQ ID NO: 67-84) was then compared with the original peptide and the relative importance (% growth inhibition by peptide analogue/% growth inhibition by original peptide×100%) of each AA residue of the peptide was determined.

## PDENK [Peptide P2, PDENK]
APEC O78; 72 h post-infection, untreated 7.4±3.1 log CFU/larva
  APEC load in the larvae: no APEC was isolated
APEC O78; pretreated with 25.5 mM, 72 h, untreated 73.34%
  Larval mortality: 26.67%
[1]; 12 mM, untreated 3.75 ± 0.10
  Intracellular APEC (log CFU/mL): 3.33 ± 0.03 log CFU/mL
[1]; 15 mM
  Intracellular APEC (log CFU/mL): No intracellular APEC was recovered
[1]; 15 mM, listed as P-2
  Intracellular APEC (log CFU/mL): 0.00 ± 0.00 log CFU/mL
[1]; 18 mM
  Intracellular APEC (log CFU/mL): 0.00 ± 0.00 log CFU/mL
APEC [2]; LGG and 50 mg/mL of peptides in drinking water, 8 days dpi
  Reduction of APEC colonization in ceca: 1.02 Log CFU/gm
APEC [2]; in vivo
  Bodyweight: no significant effect
S. typhimurium
  Reduction of S. typhimurium colonization in ceca: 0.69 log CFU/gm
APEC O78 membrane
  APEC membrane in confocal microscopy (FM4-64/SYTO-9): no or minimally visible APEC membrane
ST membrane
  ST membrane in TEM: disruption of the membrane characterized by sloughed or flaccid appearance
APEC [3]
  Relative importance of D and E in P2: 97.1%
  Relative importance of P, N and K in P2: < 40%
